In patent publication US7572436B1, “Thionin as an antineoplastic and immunostimulant” (priority 2000, dated 2009):

Tests used:
Balb C splenocytes [1] = test: Mitogen assay (^3H-thymidine uptake), murine splenocytes; format: cell-based
[2] = target: high affinity binding site on murine Balb/C splenocytes (mouse); test: binding of 125I-labelled PT to isolated murine spleen cells; non-specific binding (100-fold excess of unlabelled iodinated PT) subtracted
Balb C splenocytes [3] = test: Mitogen assay (^3H-thymidine uptake), murine splenocytes; format: cell-based; details: for CPM of tritiated thymidine incorporated: Balb C splenocytes
From the text: (§1) Murine spleen cells or human peripheral blood lymphocytes (PBLS) were obtained aseptically as described herein for use in the mitogen assay. When murine splenocytes were used, they were first treated with red cell lysing buffer (0.17 M Tris, 0.144 NH4C1, pH 7.2), washed in RPMI-10 (standard RPMI growth medium, Sigma Chemical Co., St. Louis, Mo., supplemented with 10% fetal bovine serum) and viable cells counted using Trypan Blue exclusion. Human PBLs were isolated from blood using HISTOPAQUE™-1077, a solution of FICOLL™ and sodium diatrizoate (Sigma Chemical Co., St. Louis, Mo.), and subsequent washings with RPMI-5 (RPMI supplemented with 5% fetal bovine serum) to remove platelets. Isolated lymphocytes were resuspended in RPMI-10 and a viable cell yield determined by Trypan Blue exclusion.
(§2) Drugs and known mitogenic controls were added in triplicate to a 96-well flat bottom microplate aseptically. The culture medium was RPMI-10. Splenocytes or human-lymphocytes were added at a concentration of 3-4×10^5 cells/well, to a final volume of 200 μl/well. The assay plate was incubated at 37° C. in a 5% CO2 humidified incubator. At 48-50 hours, ^3H-thymidine was added (1 μCi/well), and the plate was harvested approximately 16-18 hours later.
(§3) Mitogen assay microplates were harvested using an Inotech plate harvester (Inotech Biosystems International, Inc., Rockville, Md.). Counts per minute (cpm) per well were measured using the Berthold-Inotech Trace 96-plate reader (Inotech AT, Wohlen, Switzerland) and/or a scintillation counter (Packard Tri-carb 2100TR, Packard Instrument Co., Meriden, Conn.). Mitogenic activity was directly determined by comparing cpm levels to controls.
(§4) To test whether PT stimulates mitogen activity, splenocytes were incubated for two days with IL-2 (50 units/ml) or KLH (20 μg/ml) in conjunction with PT in the concentrations shown. Figures represent the radioactivity counts of tritiated thymidine taken up during a subsequent 20-hour incubation period of cells incubated with tritiated thymidine in RPMI.

IL-12 = test: ELISA of IL-12 production by splenocytes; format: cell-based, Balb C murine; details: Experiment 1; 48 hours; PT 0.05 μg/ml, KLH 10 μg/ml; control 1.5
Procedure: (§5) Identical plates are set up for an immunoassay and a mitogen assay. Mouse splenocytes and immuno-stimulating drugs are plated in duplicate wells (immunoassay) and triplicate wells (mitogen assay) in 96-well microplates as described above. The incubation at 37° C. in a humidified 5% CO2 incubator may vary from three to five days. At the end of the activation/proliferation period, the two identical plates are harvested as an immunoassay for cytokines or harvested as a mitogen assay (to which ^3H-thymidine has been added approximately 16-18 hours earlier).
(§6) Immunoassay kits used to detect IL-1β, IL-2, and IL-12 were the murine Quantikine M™ kits produced by R&D Systems (Minneapolis, Minn.). The general procedure is the same for all interleukin cytokines, and is described in the instructions provided by the manufacturer. All reagents are used at room temperature, and are prepared according to kit instructions.
(§7) The immunoassay plate is centrifuged at 200×g to pellet all cells. A 50 μl aliquot of Assay Diluent is first added to the center of each special enzyme-coated well supplied with the kit. Next, 50 μl of standard, control or test sample of supernatant from the immunoassay incubation plate is added to each well. This is incubated at room temperatures for two hours.
Liquid is aspirated from the wells, and the wells are washed five times with surfactant diluted 1:25 with distilled water. A 100 μL aliquot of Conjugate is added to each well and incubated two hours at room temperature. […]
One hundred microliters of Substrate Solution are added to each well and incubated 30 minutes at room temperature. […] The plate is read for absorbence at 450 nm and at 540 nm for background readings.
To calculate the results, the duplicate readings for each pair of standard, control, and test samples are averaged and the average background optical density readings are subtracted. […] Picograms of cytokine are determined from the standard curve. Mitogenic activity determined from the cpm of ^3H-thymidine is compared to the concentrations of cytokine in the experimental samples in the corresponding immunoassay. […]

IL-1 = test: ELISA of IL-1 production by splenocytes; format: cell-based, Balb C murine; details: 48 hours, PT 0.05 μg/ml
Procedure: as §5, §6, §7
Liquid is aspirated from the wells, and the wells are washed five times with surfactant diluted 1:25 with distilled water. A 100 μL aliquot of Conjugate is added to each well and incubated two hours at room temperature. The wells are again aspirated and each well washed five times.
One hundred microliters of Substrate Solution are added to each well and incubated 30 minutes at room temperature. Stop Solution (100 μl) is then added to each well. The color change is light blue to yellow (activity). The plate is read for absorbence at 450 nm and at 540 nm for background readings.
To calculate the results, the duplicate readings for each pair of standard, control, and test samples are averaged and the average background optical density readings are subtracted. A standard curve is constructed for the cytokine by plotting the mean absorbence for each standard on the y-axis against the concentration on the x-axis and drawing a best-fit curve. Picograms of cytokine are determined from the standard curve. Mitogenic activity determined from the cpm of ^3H-thymidine is compared to the concentrations of cytokine in the experimental samples in the corresponding immunoassay.
One measure of macrophage activation is the production of the cytokine interleukin-1 (IL-1) and also interleukin-12 (IL-12). Incubation of 3×10^5 Balb C murine spleen cells with 0.05 μg/ml PT was performed for 48 hours. The supernatant fluid was assayed with commercial ELISA kits for IL-1 and IL-12. […] Some experiments gave less […] and some more. This is likely a reflection of the state of the immune system in the experimental mice. The addition of KLH, an effective antigen, increased both IL-1 and IL-12 production, and the addition of PT along with the KLH further increased the production of these cytokines.

YAC-1 target cells = test: Natural killer assay (^51Cr release), murine splenocytes against YAC-1; format: cell-based; details: Swiss Webster murine splenocytes; YAC-1 targets; 48 hours with drugs; PT 0.01 μg/ml, IL-2 50 units/ml when present; effector to target ratio 80
Procedure: Murine spleen cell and human peripheral blood lymphocytes (PBLs) were obtained as described in the procedure for the Mitogen Assay.
Drugs and control substances were added, using sterile techniques, to the wells of a 24-well plate, using RPMI-10 as the culture medium. Spleen cells or human lymphocytes were added last to the wells at a concentration of 4×10^6 cells per 2 ml total volume in the well. Splenocyte incubation was usually three days (65-70 hours) while human lymphocyte stimulation may be extended to four to five days. The cells were incubated at 37° C. in a humidified 5% CO2 incubator.
On the day of harvest, 10^7 target cells were labeled with 150 μCi of ^51Cr (sodium chromate). Target cells used were YAC-I (murine Lymphoma) or K562 (human chronic myelogenous leukemia).
The cells were adjusted to 2×10^7 cells/ml in RPMI-10 and 150 μCi of ^51Cr were added to 500 μl of the target cell suspension (10^7 total cells) and incubated in a 5% CO2 humidified incubator for 1.5 hours. The labeled cells were washed three times with 10 ml RPMI-10 and then resuspended in 5 ml (2×10^6 cells/ml). Supernatants from washings of labeled cells were isolated and contained under lead shielding.
The stimulated effector cells were thoroughly mixed and removed from individual wells of the 24-well plate and transferred to tubes for centrifugation at 200×g. The supernatants were decanted and the pelleted cells washed once with 2 ml RPMI-10. The cells were finally resuspended in a total volume of 500 μl at approximately 8×10^6 cells/ml in RPMI-10.
One hundred microliters of the effector cell suspension (8×10^5 cells) were added in triplicate to a 96-well, V-bottom microplate. RPMI-10 was added to the wells designated for spontaneous release and total release of the target cells. One hundred microliters of the target cell suspension (1×10^4 cells/well) were added to the wells for a total volume of 200 μl. The “total release” wells contained 15 μl of 9% Triton X-100, 85 μl of RPMI-10, and 100 μl of target cells.
The 96-well plate was centrifuged at 150×g for four minutes to gently bring the effector and target cells in contact. The plate was then incubated in a humidified 5% CO2 incubator. After four hours, the assay plate was again centrifuged for five minutes at 250×g. One hundred microliters of the supernatant was carefully removed from each well and placed in 12 mm×75 mm glass tubes for counting in a gamma counter. The percent release was calculated using the following formula: […]
Addition of PT stimulates both murine splenocytes and human PBLs to kill tumor cells through lysis. This effect is enhanced in the presence of IL-2. Experimentally, the YAC-1 tumor cell line is routinely used as a target cell for murine NK cells, and the K562 cell line is used as the target for human PBLs. The human prostate cell line DU145 was also included in the test. The data set out in Table 5 show an activation of both murine and human NK cells by PT and IL-2. For these experiments, the drugs, PT and IL-2, were included in the cell suspension and incubated for 48 hours. After this period, the splenocyte suspension was mixed with the YAC-1 target cells that had been loaded with ^51Cr for four hours. The human PBLs were added to a K562 or DU-145 cell suspension that had been similarly loaded. After a 30-minute incubation, the radioactivity in the supernatant fluid was counted as a measure of lysis of the target cells, which reflects NK activity. […]

non-adherent human PBLs = test: Mitogen assay (^3H-thymidine uptake), human PBLs; format: cell-based; details: IL-2 50 units/ml alone (PT = 0)
From the text: as §1, §2, §3, §4

[4] = test system: B16F10 melanoma tumor cells; test: In vivo inhibition of B16F10 melanoma tumor development; parameters: species or system C57BL/6NCr female mice; details: B16 melanoma in C57 mice, sc 3 μg PT, 100 units IL-2
Procedure: C57BL/6NCr female mice (20 g), approximately 50 days old, were shaved in the abdominal area, ear notched for identification, and, two or three days prior to receiving tumor cells, pre-injected subcutaneously with the immunostimulating drugs described.
On “day zero,” B16F10 melanoma tumor cells, cultured in αMEM medium with 10% FBS, were injected intradermally (10^5 cells in 0.1 ml) in the center of the mouse abdomen using a 26 gauge ½ inch needle. Four to five hours later, the drug treatment (as specified) was injected intradermally in a different area of the abdomen than the site of the tumor injection.
Intradermal treatments using the immunostimulatory drug (as specified) continued either every other day or on a Monday-Wednesday-Friday injection schedule. Control tumors (in mice not receiving an immunostimulatory drug) usually formed within seven to ten days. Tumors were examined by visual inspection, measured (length by width), and the area of any resulting lesion was recorded as mm^2 every five days.
Mice were euthanized by CO2 inhalation if the tumor exceeded 500 mm^2. Some experiments were terminated early if all mice in the control group were dead, but the experiments were not less than 20 days. The normal duration of an experiment was about 30 days.
Pyrularia thionin, both alone and in combination with IL-2, was effective in preventing or retarding the development of melanoma tumors when C57BL/6NCr mice were pretreated before injection with B16F10 cells, which produce melanoma tumors.

OCCS [βME, β-mercaptoethanol, reference compound]
stimulation of the mitogen reaction (Balb C splenocytes [1]; 0.1 μg/ml (PT 20 nM; βME 40 nM)): no stimulation

Pyrularia thionin (from UniProt P07504) (peptide)
Kd [2]: 65 nM

granulocyte-macrophage colony-stimulating-factor [GM-CSF]
Cpm, standard mitogen assay (Balb C splenocytes [3]; GM-CSF (20 ng/ml) alone, no PT): 1,170 Cpm
Cpm, standard mitogen assay (Balb C splenocytes [1]; GM-CSF (5 ng/ml) alone, no PT): 1,024 Cpm

keyhole limpet hemocyanin [KLH, reference compound]
IL-12 (IL-12): 21 ± 1.6 pg/mL
CPM of tritiated thymidine incorporated (Balb C splenocytes [3]; KLH 20 μg/ml alone (PT = 0)): 3,301 ± 255 CPM
IL-1 (IL-1; Experiment 1, KLH 10 μg/ml, control 3.9): 12.4 ± 0 pg/mL
IL-1 (IL-1; Experiment 4, KLH (20 mg/ml), control 9): 9 ± 0.4 pg/mL

B1: interleukin-2 (protein, UniProt P04351 21-169, looked up)
Interleukin-2: APTSSSTSSSTAEAQQQQQQQQQQQQHLEQLLMDLQELLSRMENYRNLKLPRMLTFKFYLPKQATELKDLQCLEDELGPLRHVLDLTQSKSFQLEDAENFISNIRVTVVKLKGSDNTFECQFDDESATVVDFLRRWIAFCQSIISTSPQ
notes: immunostimulatory cytokine; murine IL-2 in the mouse experiments, purchased from Sigma
% Cytotoxicity (YAC-1 target cells): 16.3 ± 1.1%
CPM of tritiated thymidine incorporated (non-adherent human PBLs): 1,900 ± 64 CPM
CPM of tritiated thymidine incorporated (Balb C splenocytes [3]; IL-2 50 units/ml alone (PT = 0)): 2,379 ± 87 CPM
Average Tumor Size ([4]; 20-31 days): 364 mm^2
Number of Deaths ([4]; total mice 12 (IL-2), 15 (PT), 24 (PT + IL-2)): 1
Mice w/o Tumors ([4]; total mice 12 (IL-2), 15 (PT), 24 (PT + IL-2), 20-31 days): 0
